pEC50: −log10 of the molar value.
Tests used:
[1] = system: RSV A2; assay: RSV plaque reduction assay; type: cell-based, respiratory syncytial virus (RSV); conditions: human respiratory syncytial virus, HepG2; Hep-G2 cells, RSV A2, mean of at least two experiments
Method: Compounds were subjected to RSV plaque reduction assays according to the following protocol.
Hep-G2 cells (ECACC, 85011430) were passaged in flasks and seeded in 24-well plates in DMEM containing antibiotics and supplemented with 10% FBS. During inoculation and subsequent incubation, cells were cultured in DMEM containing 2% FBS. 100 plaque forming unit/well of RSV (RSV A2 ECACC, 0709161v) was mixed with eight serial dilutions of compound. Subsequently, 100 μL of the virus/compound mixtures was added to confluent Hep-G2 cell monolayers. The cells and virus/compound mixtures were incubated at 37° C. in a humidified 5% CO2 incubator for 2 h prior to removal of the inoculum and addition of 1 mL of overlay (DMEM containing 2% FBS and 0.8% CMC) containing compound dilutions. The cells and were incubated at 37° C. in a humidified 5% CO2 incubator for 2 days.
Cells were washed with PBS before adding 75/25% v/v EtOH/MeOH, for 3 min. Fixative was removed and plates were washed with PBS. A pre-titrated amount of the primary antibody was added in 200 μL PBS/2% milk powder, and plates incubated for 90 min at 37° C. The plates were washed 3 times with PBS/0.05% Tween20 before addition of rabbit anti-goat horse radish peroxidase in 200 μL PBS/2% milk powder, and incubated for 1 h at 37° C. Following three wash steps with PBS/0.05% Tween20, 200 μL ready-to-use TrueBlue was added and plates were incubated at rt for 10-15 min before washing with water. After removal of water, plates were air-dried in the dark.
Plates were scanned and analysed using the Immunospot S6 Macro analyser, which is equipped with BioSpot analysis software for counting immunostained plaques (virospots). Plaque counts were used to calculate % infection relative to the mean of the plaque count in the virus control wells for RSV. The EC50 value was calculated as 50% reduction in signal, respectively, by interpolation of inhibition curves fitted with a 4-parameter nonlinear regression with a variable slope in Dotmatics. Plaque EC50 and cell toxicity CC50 values are a mean of at least two experiments and figures are rounded to whole units.

[2] = Liver microsomal stability, rat; type: in vitro ADME; conditions: pH 7.4; rat liver microsomes, 0.5 mg/mL protein, 1 μM compound, NADPH; >80% remaining at 45 min denoted >140; read-out: Liver Microsomal Stability: t1/2 (min); rat
Method: (§1) Compounds were subjected to the following assays to investigate liver microsomal stability, permeability and plasma protein binding.
(§2) Pooled liver microsomes were purchased from a reputable commercial supplier and stored at −80° C. prior to use. Microsomes (final protein concentration 0.5 mg/mL), 0.1 M phosphate buffer pH 7.4 and test compound (final substrate concentration 1 μM; final DMSO concentration 0.25%) were pre-incubated at 37° C. prior to the addition of NADPH (final concentration 1 mM) to initiate the reaction. The final incubation volume was 50 μL. A control incubation was included for each compound tested where 0.1 M phosphate buffer pH 7.4 was added instead of NADPH (minus NADPH). Two control compounds were included with each species. All incubations were performed singularly for each test compound. Each compound was incubated for 0, 5, 15, 30 and 45 min. The control (minus NADPH) was incubated for 45 min only. The reactions were stopped by transferring incubate into acetonitrile at the appropriate time points, in a 1:3 ratio. The termination plates are centrifuged at 3,000 rpm for 20 min at 4° C. to precipitate the protein. Following protein precipitation, the sample supernatants were combined in cassettes of up to 4 compounds, internal standard added, and samples analysed by LC-MS/MS. From a plot of ln peak area ratio (compound peak area/internal standard peak area) against time, the gradient of the line was determined. Subsequently, half-life (t1/2) and intrinsic clearance (CLint) were calculated.

[3] = Liver microsomal stability, dog; type: in vitro ADME; conditions: pH 7.4; dog liver microsomes, 0.5 mg/mL protein, 1 μM compound, NADPH; >80% remaining at 45 min denoted >140; read-out: Liver Microsomal Stability: t1/2 (min); dog
Method: as §1, §2

[4] = Liver microsomal stability, human; type: in vitro ADME; conditions: pH 7.4; human liver microsomes, 0.5 mg/mL protein, 1 μM compound, NADPH; >80% remaining at 45 min denoted >140; read-out: Liver Microsomal Stability: t1/2 (min); human
Method: as §1, §2

[5] = Cell cytotoxicity CC50; type: cell-based; conditions: human; mean of at least two experiments

With CCNc1ccc(-c2c(C(=O)N[C@H]3N=C(c4ccccc4)c4cccc(F)c4NC3=O)cnn2C2COC2)c(F)n1 [Example 40, 5-[6-(Ethylamino)-2-fluoropyridin-3-yl]-N-[(3S)-9-fluoro-2-oxo-5-phenyl-1,3-dihydro-1,4-benzodiazepin-3-yl]-1-(oxetan-3-yl)pyrazole-4-carboxamide] the pEC50 [1] was 7.17, the half-life [2] was 81.1 min and the half-life [3] was 72.9 min. For the same compound, the half-life [4] was 49.6 min and the CC50 [5] was > 25000 nM.
Work on CCOc1nn(CC)c(-c2ccccc2F)c1C(=O)N[C@H]1N=C(c2ccccc2)c2cccc(F)c2NC1=O [Example 55, 3-Ethoxy-1-ethyl-N-[(3S)-9-fluoro-2-oxo-5-phenyl-1,3-dihydro-1,4-benzodiazepin-3-yl]-5-(2-fluorophenyl)pyrazole-4-carboxamide] yielded a pEC50 [1] of 7.48, a half-life [2] of 26.5 min and a half-life [3] of 39 min. The half-life [4] was 41.3 min and the CC50 [5] was > 25000 nM.
For O=C(N[C@H]1N=C(c2ccccc2)c2cccc(F)c2NC1=O)c1cnn(C2CCOCC2)c1-c1ccc(NC2CC2)nc1 [Example 56, 5-[6-(Cyclopropylamino)pyridin-3-yl]-1-(oxan-4-yl)-N-[(3S)-9-fluoro-2-oxo-5-phenyl-1,3-dihydro-1,4-benzodiazepin-3-yl]pyrazole-4-carboxamide], the pEC50 [1] was 7.11 and the CC50 [5] was > 25000 nM.
With CC(C)Nc1ccc(-c2c(C(=O)N[C@H]3N=C(c4ccccc4)c4cccc(F)c4NC3=O)cnn2C2CCOCC2)cn1 [Example 58, 1-(Oxan-4-yl)-5-[6-(propan-2-ylamino)pyridin-3-yl]-N-[(3S)-9-fluoro-2-oxo-5-phenyl-1,3-dihydro-1,4-benzodiazepin-3-yl]pyrazole-4-carboxamide] the pEC50 [1] was 7.00 and the CC50 [5] was > 25000 nM.
In the case of CCc1ccc(-c2c(C(=O)N[C@H]3N=C(c4ccccc4)c4cccc(F)c4NC3=O)cnn2C2CCOCC2)c(F)n1 [Example 53, 5-(6-Ethyl-2-fluoropyridin-3-yl)-1-(oxan-4-yl)-N-[(3S)-9-fluoro-2-oxo-5-phenyl-1,3-dihydro-1,4-benzodiazepin-3-yl]pyrazole-4-carboxamide], the pEC50 [1] was 7.14, the half-life [2] was 200 min and the half-life [3] was 183 min. For the same compound, the half-life [4] was > 140 min and the CC50 [5] was > 25000 nM.
O=C(N[C@H]1N=C(c2ccccc2)c2ccccc2NC1=O)c1cnn(C2CCOCC2)c1-c1cc(C2CC2)cnc1F [Example 50, 5-(5-Cyclopropyl-2-fluoropyridin-3-yl)-1-(oxan-4-yl)-N-[(3S)-2-oxo-5-phenyl-1,3-dihydro-1,4-benzodiazepin-3-yl]pyrazole-4-carboxamide] showed a pEC50 [1] of 7.09, a half-life [2] of 44.2 min and a half-life [3] of 163 min. For the same compound, the half-life [4] was 94.3 min and the CC50 [5] was > 25000 nM.
Work on CCn1ncc(C(=O)N[C@H]2N=C(c3ccccc3)c3ccccc3NC2=O)c1-c1ccc(NC(C)C)cc1F [Example 9, 1-Ethyl-5-[2-fluoro-4-(propan-2-ylamino)phenyl]-N-[(3S)-2-oxo-5-phenyl-1,3-dihydro-1,4-benzodiazepin-3-yl]pyrazole-4-carboxamide] yielded a pEC50 [1] of 7.14, a half-life [2] of 141 min and a half-life [3] of 89.1 min. The half-life [4] was 220 min and the CC50 [5] was > 25000 nM.
For CCn1ncc(C(=O)N[C@H]2N=C(c3ccccc3)c3ccccc3NC2=O)c1-c1ccc(NC2CCC2)nc1F [Example 5, 5-[6-(Cyclobutylamino)-2-fluoropyridin-3-yl]-1-ethyl-N-[(3S)-2-oxo-5-phenyl-1,3-dihydro-1,4-benzodiazepin-3-yl]pyrazole-4-carboxamide], the pEC50 [1] was 7.06, the half-life [2] was 47.4 min and the half-life [3] was 45.7 min. For the same compound, the half-life [4] was 50.1 min and the CC50 [5] was > 25000 nM.
In the case of CCn1ncc(C(=O)N[C@H]2N=C(c3ccccc3)c3ccccc3NC2=O)c1-c1ncc(NC(C)C)cc1F [Example 8, 1-Ethyl-5-[3-fluoro-5-(propan-2-ylamino)pyridin-2-yl]-N-[(3S)-2-oxo-5-phenyl-1,3-dihydro-1,4-benzodiazepin-3-yl]pyrazole-4-carboxamide], the pEC50 [1] was 7.49, the half-life [2] was > 140 min and the half-life [3] was 104 min. For the same compound, the half-life [4] was 193 min and the CC50 [5] was > 25000 nM.
Compound CC(C)(C)n1cc(C(=O)N[C@H]2N=C(c3ccccc3)c3ccccc3NC2=O)c(-c2ccc(NC3CC3)nc2F)n1 [Example 29, 1-tert-butyl-3-[6-(cyclopropylamino)-2-fluoropyridin-3-yl]-N-[(3S)-2-oxo-5-phenyl-1,3-dihydro-1,4-benzodiazepin-3-yl]pyrazole-4-carboxamide] has a pEC50 [1] of 7.27, a half-life [2] of 45.2 min and a half-life [3] of 44 min. The half-life [4] was 73.9 min and the CC50 [5] was > 25000 nM.
CCn1ncc(C(=O)N[C@H]2N=C(c3ccccc3)c3ccccc3NC2=O)c1-c1ccc(NC)nc1F [Example 1, 1-Ethyl-5-[2-fluoro-6-(methylamino)pyridin-3-yl]-N-[(3S)-2-oxo-5-phenyl-1,3-dihydro-1,4-benzodiazepin-3-yl]pyrazole-4-carboxamide] gave a pEC50 [1] of 7.04, a half-life [2] of 24.4 min and a half-life [3] of 11.1 min. The half-life [4] was 48.1 min and the CC50 [5] was > 25000 nM.
CCc1ccc(-c2c(C(=O)N[C@H]3N=C(c4ccccc4)c4cccc(F)c4NC3=O)cnn2C2CCN(C)CC2)c(F)c1 [Example 59, 5-(4-Ethyl-2-fluorophenyl)-1-(1-methylpiperidin-4-yl)-N-[(3S)-9-fluoro-2-oxo-5-phenyl-1,3-dihydro-1,4-benzodiazepin-3-yl]pyrazole-4-carboxamide] gave a pEC50 [1] of 6.97 and a CC50 [5] of 15200 nM.
For CC(C)Nc1ccc(-c2c(C(=O)N[C@H]3N=C(c4ccccc4)c4cccc(F)c4NC3=O)cnn2C2COC2)c(F)n1 [Example 41, N-[(3S)-9-Fluoro-2-oxo-5-phenyl-1,3-dihydro-1,4-benzodiazepin-3-yl]-5-[2-fluoro-6-(propan-2-ylamino)pyridin-3-yl]-1-(oxetan-3-yl)pyrazole-4-carboxamide], the pEC50 [1] was 7.04 and the CC50 [5] was > 25000 nM.
For CCc1ccc(-c2c(C(=O)N[C@H]3N=C(c4ccccc4)c4ccccc4NC3=O)cnn2C2CCOCC2)c(F)c1 [Example 46, 5-(4-Ethyl-2-fluorophenyl)-1-(oxan-4-yl)-N-[(3S)-2-oxo-5-phenyl-1,3-dihydro-1,4-benzodiazepin-3-yl]pyrazole-4-carboxamide], the pEC50 [1] was 7.47 and the CC50 [5] was > 25000 nM.
For CC(C)c1ccc(-c2c(C(=O)N[C@H]3N=C(c4ccccc4)c4cccc(F)c4NC3=O)cnn2C2CCOCC2)c(F)c1 [Example 45, 5-(2-Fluoro-4-propan-2-ylphenyl)-1-(oxan-4-yl)-N-[(3S)-9-fluoro-2-oxo-5-phenyl-1,3-dihydro-1,4-benzodiazepin-3-yl]pyrazole-4-carboxamide], the pEC50 [1] was 7.42 and the CC50 [5] was > 25000 nM.
With CCc1ccc(-c2c(C(=O)N[C@H]3N=C(c4ccccc4)c4ccccc4NC3=O)cnn2C2CCOCC2)c(F)n1 [Example 52, 5-(6-Ethyl-2-fluoropyridin-3-yl)-1-(oxan-4-yl)-N-[(3S)-2-oxo-5-phenyl-1,3-dihydro-1,4-benzodiazepin-3-yl]pyrazole-4-carboxamide] the pEC50 [1] was 7.06 and the CC50 [5] was > 25000 nM.
For CCOc1nn(CC)c(-c2ccccc2F)c1C(=O)N[C@H]1N=C(c2ccccc2)c2ccccc2NC1=O [Example 54, 3-Ethoxy-1-ethyl-5-(2-fluorophenyl)-N-[(3S)-2-oxo-5-phenyl-1,3-dihydro-1,4-benzodiazepin-3-yl]pyrazole-4-carboxamide], the pEC50 [1] was 7.29 and the CC50 [5] was > 25000 nM.

Reference: patent publication US20220409629A1, “BENZODIAZEPINE DERIVATIVES FOR TREATING A RESPIRATORY SYNCYTIAL VIRUS (RSV) INFECTION” (priority 2019, published 2022)
